This is an account of results in publication PMC3636379, “Intracellular accumulation of aggregated pyroglutamate amyloid beta: convergence of aging and Aβ pathology at the lysosome” (Age, 2012).

One series concerns the target T1, recombinant CTD (Homo sapiens, UniProt P07339).
T1 construct: purchased Sigma
Put plainly: Degradation assay of internally quenched fluorescent Aβ peptides with cathepsin D. The series is classed as in vitro ADME. As to conditions: 10 pmol, 5 mU recombinant CTD, 100 mM sodium acetate pH 5.0, 37 °C, fluorescence ex 485 / em 520 nm, mean ± SD, two independent experiments (n = 10). As for the experimental part:
Therefore, we investigated whether the pE-modified Aβ is more resistant to lysosomal degradation. To this end, a degradation assay with the major lysosomal hydrolase CTD was performed. For this purpose, we used internally quenched fluorescent Aβ peptides. Degradation of the peptides removes the quencher and restores the fluorescent signal (Reits et al. [2003]), thus allowing analysis of degradation over time by monitoring the increase in fluorescence. […] To investigate the effect of aggregation on degradation, we used pre-aggregated Aβ1-40 and Aβ3(pE)-40 in the CTD assay. […] Upon aggregation, the overall degradation is hampered, but the observed difference between the peptides is retained.
Aβ peptides containing fluorophore and quencher were synthesized by solid phase synthesis using an Fmoc strategy at the NKI peptide facility. […] Peptides were purified by RP-HPLC and evidenced the expected molecular mass as determined by mass spectrometry.
Immediately prior to use, HFIP-treated peptide films of fluorescently labeled internally quenched Aβ were resuspended in DMSO and further diluted in PBS. […] Degradation of quenched peptides was followed by monitoring the increase in fluorescence (excitation, 485–12 nm; emission, 520 nm, Fluostar Omega) at 37 °C. Background fluorescence of peptide incubated in buffer without CTD controls was subtracted. […]

For series [1], the system named is differentiated SK-N-SH cells. Put plainly: Lysosomal membrane permeabilization: CTD in subcellular fractions, Western blot. Type of series: cell-based. The settings on record: 1 μM oligomers, 16 h, three experiments. As for the experimental part:
(§1) To investigate whether Aβ3(pE)-42 oligomers affect the integrity of the lysosomes, lysosomal membrane permeabilization (LMP) was analyzed in differentiated SK-N-SH cells. A distinctive sign of LMP is the translocation of soluble lysosomal components, from the lysosomal lumen to the cytosol (Boya et al. [2003]). Differentiated SK-N-SH cells were treated with Aβ oligomers and the leakage of cathepsin D (CTD), a soluble lysosomal enzyme, from the lysosomal lumen to the cytosol was analyzed after subcellular fractionation on Western blot and by immunofluorescent staining. Treatment with Aβ3(pE)-42 oligomers led to a decrease of CTD in the membrane fraction (which also contained the lysosomes) whereas the cytosolic CTD was increased. […] The result was confirmed by immunofluorescent staining of CTD. Untreated cells reveal a particulate staining pattern, indicative of its localization within lysosomes (Fig. 1b).
SK-N-SH and HeLa cells were cultured in Dulbecco’s modified Eagle’s medium with GlutaMAX (Gibco BRL, Carlsbad, CA, USA) supplemented with 10 % fetal calf serum (FCS, Gibco BRL), 100 μg/ml streptomycin, and 100 U/ml penicillin. Cell lines are routinely checked for mycoplasma contamination using a specific 16S rRNA PCR-based assay; all cells used in this study were mycoplasma free. […]

The test system of series [2] is differentiated SK-N-SH cells. Put plainly: Lysosomal membrane permeabilization: immunofluorescent staining of CTD. The settings on record: 1 μM Aβ oligomers or hydroxychloroquine, 16 h; confocal microscopy. Type of series: cell-based. As for the experimental part: as §1, with “1b). […] SK-N-SH and HeLa cells were cultured in Dulbecco’s modified Eagle’s medium with GlutaMAX (Gibco BRL, Carlsbad, CA, USA) supplemented with 10 % fetal calf serum (FCS, Gibco BRL), 100 μg/ml streptomycin, and 100 U/ml penicillin. Cell lines are routinely checked for mycoplasma contamination using a specific 16S rRNA PCR-based assay; all cells used in this study were mycoplasma free. […]” for “1b).”

T1 sequence (P07339 65-412): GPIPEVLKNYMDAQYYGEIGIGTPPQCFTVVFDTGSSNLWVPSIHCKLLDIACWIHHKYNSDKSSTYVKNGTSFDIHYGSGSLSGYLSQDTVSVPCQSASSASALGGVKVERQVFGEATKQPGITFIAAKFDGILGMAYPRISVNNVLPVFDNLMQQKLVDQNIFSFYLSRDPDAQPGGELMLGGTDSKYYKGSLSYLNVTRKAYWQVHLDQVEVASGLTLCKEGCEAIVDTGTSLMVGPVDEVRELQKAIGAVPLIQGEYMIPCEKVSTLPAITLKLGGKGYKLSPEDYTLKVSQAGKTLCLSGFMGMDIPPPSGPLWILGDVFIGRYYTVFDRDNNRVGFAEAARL

Regarding “Aβ1-40: internally quenched fluorescent Aβ peptide, Oregon green 488 at amino acid 22 and dabcyl at amino acid 12; pre-aggregated or not”, the “time to reach the half-max fluorescence of degradation (t 1/2)” value with recombinant CTD (not pre-aggregated, internally quenched fluorescent peptide (Oregon green 488 at aa 22, dabcyl at aa 12)) amounted to 48.9 ± 4.3 min; in the series with recombinant CTD (pre-aggregated peptide, internally quenched fluorescent peptide), 63.6 ± 10.0 min.

In the case of “Aβ1-42: synthetic amyloid beta 1-42 purchased from Anaspec, used as oligomers”, in series [1], the “CTD in the membrane fraction (containing the lysosomes)” value is reported as “did not change” and the “cytosolic CTD” value is “did not change”. The “CTD staining pattern (release from lysosomes to cytoplasm)” value in series [2] is on record as “same pattern but to a lesser extent”.
